Laboratory results taken from patent publication US20220276186A1, “OPTIMIZED ANALYTE DERIVATIZATION FOR SYNERGISTIC APPLICATION WITH CRYSTAL SPONGE METHOD” (MERCK PATENT GMBH, priority 2019, published 2022).

Assay: solubility of the analyte in chloroform (step i of Procedure 1, crystalline sponge method)
Assay type: physicochemical
Description: Procedure 1—absorption of an organic molecule into a single porous crystal. Specifically, procedure 1 describes absorption of an organic molecule into a crystalline sponge comprising [(ZnCl2)3(tpt)2.(cyclohexane)x] (tpt=1,3,5-tris(4-pyridyl)triazine. The organic molecule is first dissolved in trichloro methane (chloroform), i.e., the sample comprises the organic molecule in trichloro methane. The procedure comprises the steps: • i—1 mg of organic molecule is dissolved in 1 ml of chloroform at room temperature. (Proportionally lower quantities can be used, depending on the available amount of analyte.) • ii—A single crystal of [(ZnCl2)3(tpt)2.(cyclohexane)x] (tpt=1,3,5-tris(4-pyridyl)triazine) crystal sponge of about 100 μm diameter, which has been visually inspected under a microscope and found to be without twinning or visible cracks, is placed in a septum screw-top glass vial with conically pointed bottom, submerged in 50 μl of cyclohexane. • iii—4.5 μl of the solution obtained in step (i) (containing 4.5 μg of analyte) is added to the crystalline sponge in cyclohexane as described in step (ii). • iv—The screw-top is closed, and the septum is pierced with a medical-type syringe needle, which may be left in that position to enable slow solvent evaporation. This assembly is incubated at 50° C. for 24 or more hours. […]

SMILES	solution of analyte in chloroform that could be prepared without difficulty (Procedure 1 step i (room temperature)) [mg in 1 ml]	amount of analyte that could be dissolved in 1 ml chloroform (20° C.)
COc1ccc(-c2coc3cc(OC)ccc3c2=O)cc1 [4′,7-dimethoxy isoflavone]	≥ 1	
O=c1c(-c2ccc(O)cc2)coc2cc(O)ccc12 [4′,7-dihydroxy isoflavone]		about 0.005 mg in 1 ml
